Converted amounts (≈) assume the structure as drawn.
How the values were obtained:
A. calcoaceticus No. 14 = test: MIC, agar plate dilution method; assay type: cell-based; conditions: Acinetobacter calcoaceticus; for MIC: A. calcoaceticus No. 14, 10^6 CFU/ml, Sensitivity Disk Agar, read-out: Minimum Inhibitory Concentration
Procedure: (§1) The minimum inhibitory concentrations (MIC: μg/ml) of the compounds of the present invention against various microorganisms were measured by an agar plate dilution method (inoculum size: 10^6 CFU/ml) by using Sensitivity Disk Agar (Nissui) in comparison with Cefotaxime and Ceftazidime as comparative compounds.

C. freundii No. 7 = test: MIC, agar plate dilution method; assay type: cell-based; conditions: Citrobacter freundii; C. freundii No. 7; 10^6 CFU/ml; Sensitivity Disk Agar; read-out: Minimum Inhibitory Concentration
Procedure: as §1

E. cloaceae Nek 39 = test: MIC, agar plate dilution method; assay type: cell-based; conditions: E. cloaceae Nek 39; 10^6 CFU/ml; Sensitivity Disk Agar; read-out: Minimum Inhibitory Concentration
Procedure: as §1

E. coli C/Rms149 = test: MIC, agar plate dilution method; assay type: cell-based; conditions: Escherichia coli, read-out: Minimum Inhibitory Concentration
Procedure: as §1

E. coli CSH2 = test: MIC, agar plate dilution method; assay type: cell-based; conditions: Escherichia coli, 10^6 CFU/ml, Sensitivity Disk Agar, read-out: Minimum Inhibitory Concentration
Procedure: as §1

E. coli CSH = test: MIC, agar plate dilution method; assay type: cell-based; conditions: Escherichia coli, read-out: Minimum Inhibitory Concentration
Procedure: as §1

E. coli ML1410/Rte16 = test: MIC, agar plate dilution method; assay type: cell-based; conditions: Escherichia coli, ML1410/RTE16, read-out: Minimum Inhibitory Concentration
Procedure: as §1

E. coli NIHJJC-2 = test: MIC, agar plate dilution method; assay type: cell-based; conditions: Escherichia coli, NIHJJC2; E. coli NIHJJC-2; 10^6 CFU/ml; Sensitivity Disk Agar; read-out: Minimum Inhibitory Concentration
Procedure: as §1

E. coli W3630/Rms212 = test: MIC, agar plate dilution method; assay type: cell-based; conditions: Escherichia coli, W3630/RMS212, read-out: Minimum Inhibitory Concentration
Procedure: as §1

E. coli W3630/Rms213 = test: MIC, agar plate dilution method; assay type: cell-based; conditions: Escherichia coli, W3630/RMS213, read-out: Minimum Inhibitory Concentration
Procedure: as §1

K. pneumoniae No. 42 = test: MIC, agar plate dilution method; assay type: cell-based; conditions: Klebsiella pneumoniae; K. pneumoniae No. 42; 10^6 CFU/ml; Sensitivity Disk Agar; read-out: Minimum Inhibitory Concentration
Procedure: as §1

P. mirabilis JY10 = test: MIC, agar plate dilution method; assay type: cell-based; conditions: Proteus mirabilis; P. mirabilis JY10; 10^6 CFU/ml; Sensitivity Disk Agar; read-out: Minimum Inhibitory Concentration
Procedure: as §1

P. vulgaris No. 33 = test: MIC, agar plate dilution method; assay type: cell-based; conditions: Proteus vulgaris; P. vulgaris No. 33; 10^6 CFU/ml; Sensitivity Disk Agar; read-out: Minimum Inhibitory Concentration
Procedure: as §1

P. vulgaris OB1043 = test: MIC, agar plate dilution method; assay type: cell-based; conditions: Proteus vulgaris; P. vulgaris OB1043; 10^6 CFU/ml; Sensitivity Disk Agar; read-out: Minimum Inhibitory Concentration
Procedure: as §1

S. aureus JS-1 = test: MIC, agar plate dilution method; assay type: cell-based; conditions: Staphylococcus aureus, JS1; S. aureus JS-1; 10^6 CFU/ml; Sensitivity Disk Agar; read-out: Minimum Inhibitory Concentration
Procedure: as §1

S. aureus NIHJJC-1 = test: MIC, agar plate dilution method; assay type: cell-based; conditions: Staphylococcus aureus, NIHJJC1; S. aureus NIHJJC-1; 10^6 CFU/ml; Sensitivity Disk Agar; read-out: Minimum Inhibitory Concentration
Procedure: as §1

S. marcescens No. 16-2 = test: MIC, agar plate dilution method; assay type: cell-based; conditions: Serratia marcescens, NO.162; S. marcescens No. 16-2; 10^6 CFU/ml; Sensitivity Disk Agar; read-out: Minimum Inhibitory Concentration
Procedure: as §1

P. aeruginosa AK109 = test: MIC, agar plate dilution method; assay type: cell-based, Pseudomonas aeruginosa; conditions: for MIC: Pseudomonas aeruginosa, P. aeruginosa AK109, 10^6 CFU/ml, Sensitivity Disk Agar, read-out: Minimum Inhibitory Concentration; for antibacterial activity relative to the compound of Reference Example: Pseudomonas aeruginosa AK109
Procedure: as §1

P. aeruginosa AKR17 = test: MIC, agar plate dilution method; assay type: cell-based, Pseudomonas aeruginosa; conditions: for MIC: Pseudomonas aeruginosa, P. aeruginosa AKR17, 10^6 CFU/ml, Sensitivity Disk Agar, read-out: Minimum Inhibitory Concentration; for antibacterial activity relative to the compound of Reference Example: Pseudomonas aeruginosa AKR-17, resistant to all cephalosporins including Ceftazidime
Procedure: as §1

P. cepacia 23 = test: MIC, agar plate dilution method; assay type: cell-based, Pseudomonas cepacia; conditions: for MIC: Burkholderia cepacia, P. cepacia 23, 10^6 CFU/ml, Sensitivity Disk Agar, read-out: Minimum Inhibitory Concentration; for antibacterial activity relative to the compound of Reference Example: Pseudomonas cepacia 23
Procedure: as §1

P. maltophilia IID 1275 = test: MIC, agar plate dilution method; assay type: cell-based, Pseudomonas maltophilia; conditions: for MIC: Stenotrophomonas maltophilia, IID1275, P. maltophilia IID 1275, 10^6 CFU/ml, Sensitivity Disk Agar, read-out: Minimum Inhibitory Concentration
Procedure: as §1

[1] = test system: Gram-positive bacteria and Gram-negative bacteria; test: antibacterial activity, general statement; assay type: cell-based; conditions: sensitive and resistant bacteria
Procedure: as §1

Compound | MIC (A. calcoaceticus No. 14) [µg/mL] | MIC (C. freundii No. 7) [µg/mL] | MIC (E. cloaceae Nek 39) [µg/mL] | MIC (E. coli C/Rms149) [µg/mL] | MIC (E. coli CSH2) [µg/mL] | MIC (E. coli CSH) [µg/mL] | MIC (E. coli ML1410/Rte16) [µg/mL] | MIC (E. coli NIHJJC-2) [µg/mL] | MIC (E. coli W3630/Rms212) [µg/mL] | MIC (E. coli W3630/Rms213) [µg/mL] | MIC (K. pneumoniae No. 42) [µg/mL] | MIC (P. mirabilis JY10) [µg/mL] | MIC (P. vulgaris No. 33) [µg/mL] | MIC (P. vulgaris OB1043) [µg/mL] | MIC (S. aureus JS-1) [µg/mL] | MIC (S. aureus NIHJJC-1) [µg/mL] | MIC (S. marcescens No. 16-2) [µg/mL] | MIC (P. aeruginosa AK109) [µg/mL] | MIC (P. aeruginosa AKR17) [µg/mL] | MIC (P. cepacia 23) [µg/mL] | further results
CO/N=C(\C(=O)NC1C(=O)N2C(C(=O)[O-])=C(C[N+]3(C)Cc4ccccc4C3)CSC12)c1csc(N)n1 (stereo not shown) [Reference Ex., 7-[(Z)-2-(2-aminothiazol-4-yl)-2-methoxyiminoacetamido]-3-(2-methyl-2-isoindolinium)methyl-3-cephem-4-carboxylate, reference compound] | 25 (≈ 47.3 µM) | 1.56 (≈ 2.95 µM) | 0.78 (≈ 1.48 µM) | 0.1 (≈ 0.189 µM) | ≤ 0.05 | 0.39 (≈ 0.738 µM) | 0.05 (≈ 0.0946 µM) | ≤ 0.05 | 0.2 (≈ 0.378 µM) | 0.78 (≈ 1.48 µM) | 0.2 (≈ 0.378 µM) | 0.39 (≈ 0.738 µM) | 0.2 (≈ 0.378 µM) | 0.78 (≈ 1.48 µM) | 3.12 (≈ 5.9 µM) | 0.39 (≈ 0.738 µM) | 12.5 (≈ 23.6 µM) | 3.12 (≈ 5.9 µM) | > 25 | 12.5 (≈ 23.6 µM) | MIC (P. maltophilia IID 1275): > 25 µg/mL
CCON=C(C(=O)NC1C(=O)N2C(C(=O)[O-])=C(C[N+]3(C)Cc4cc(O)c(O)cc4C3)CSC12)c1csc(N)n1 (stereo not shown) [Ex. 5-D, 7-[(Z)-2-(2-aminothiazol-4-yl)-2-ethoxyiminoacetamido]-3-(5,6-dihydroxy-2-methyl-2-isoindolinium) methyl-3-cephem-4-carboxylate] | 0.2 (≈ 0.348 µM) | 6.25 (≈ 10.9 µM) | ≤ 0.05 | 0.1 (≈ 0.174 µM) | 0.1 (≈ 0.174 µM) | 0.2 (≈ 0.348 µM) | 0.1 (≈ 0.174 µM) | ≤ 0.05 | ≤ 0.05 | 0.2 (≈ 0.348 µM) | 0.1 (≈ 0.174 µM) | 0.2 (≈ 0.348 µM) | 0.2 (≈ 0.348 µM) | 0.78 (≈ 1.36 µM) | 12.5 (≈ 21.8 µM) | 3.12 (≈ 5.43 µM) | 3.12 (≈ 5.43 µM) | 0.1 (≈ 0.174 µM) | 0.39 (≈ 0.679 µM) | 0.1 (≈ 0.174 µM) | antibacterial activity relative to the compound of Reference Example (A. calcoaceticus No. 14): at least 32 times; antibacterial activity relative to the compound of Reference Example (P. aeruginosa AK109): at least 16 times; antibacterial activity relative to the compound of Reference Example (P. aeruginosa AKR17): at least 32 times; antibacterial activity relative to the compound of Reference Example (P. cepacia 23): at least 32 times; MIC (P. maltophilia IID 1275): 25 µg/mL (≈ 43.5 µM); antibacterial activity (in words) [1]: particularly strong antibacterial activities
C[N+]1(CC2=C(C(=O)[O-])N3C(=O)C(NC(=O)C(=NOC4(C(=O)O)CCC4)c4csc(N)n4)C3SC2)Cc2cc(O)c(O)cc2C1 (stereo not shown) [Ex. 11-F, 7-[(Z)-2-(2-aminothiazol-4-yl)-2-(1-carboxy-1-cyclobutoxyimino)acetamido]-3-(5,6-dihydroxy-2-methyl-2-isoindolinium)methyl-3-cephem-4-carboxylate] | 0.1 (≈ 0.155 µM) | 0.78 (≈ 1.21 µM) | ≤ 0.05 | ≤ 0.05 | ≤ 0.05 | ≤ 0.05 | ≤ 0.05 | ≤ 0.05 | ≤ 0.05 | ≤ 0.05 | ≤ 0.05 | ≤ 0.05 | ≤ 0.05 | ≤ 0.05 | > 25 | 25 (≈ 38.8 µM) | 0.2 (≈ 0.31 µM) | ≤ 0.05 | 0.1 (≈ 0.155 µM) | ≤ 0.05 | antibacterial activity relative to the compound of Reference Example (A. calcoaceticus No. 14): at least 32 times; antibacterial activity relative to the compound of Reference Example (P. aeruginosa AK109): at least 16 times; antibacterial activity relative to the compound of Reference Example (P. aeruginosa AKR17): at least 32 times; antibacterial activity relative to the compound of Reference Example (P. cepacia 23): at least 32 times; antibacterial activity relative to the compound of Reference Example (P. maltophilia IID 1275; Pseudomonas maltophilia resistant to all cephalosporins): at least twice as strong; MIC (P. maltophilia IID 1275): 1.56 µg/mL (≈ 2.42 µM)

— patent publication US4677100A, “Cephalosporin derivatives” (Banyu Pharmaceutical Co., Ltd., priority 1984, dated 1987)
